# In ChEMBL document CHEMBL1149545, “Thyroid receptor ligands. Part 8: Thyromimetics derived from N-acylated-alpha-amino acid derivatives displaying modulated pharmacological selectivity compared with KB-141” (Bioorg Med Chem Lett, 2007):
# How the values were obtained:
# Homo sapiens = species: Homo sapiens; experiment: Selectivity ratio of IC50 for thyroid hormone receptor alpha-1 to IC50 for thyroid hormone receptor beta-1
# cells [1] = conditions: Homo sapiens, CHO-K1
# Description: (§1) Activity against TRAF-alpha-1 expressed in CHOK1 cells by alkaline phosphatase reporter gene assay
# cells [2] = conditions: Homo sapiens, CHO-K1; remark: listed apart in the source
# Description: (§2) Activity against TRAFbeta expressed in CHOK1 cells by alkaline phosphatse reporter gene assay
# [3] = biological target: T1, Thyroid hormone receptor alpha (Homo sapiens, UniProt P10827); experiment: biochemical
# T1 sequence (P10827 whole entry): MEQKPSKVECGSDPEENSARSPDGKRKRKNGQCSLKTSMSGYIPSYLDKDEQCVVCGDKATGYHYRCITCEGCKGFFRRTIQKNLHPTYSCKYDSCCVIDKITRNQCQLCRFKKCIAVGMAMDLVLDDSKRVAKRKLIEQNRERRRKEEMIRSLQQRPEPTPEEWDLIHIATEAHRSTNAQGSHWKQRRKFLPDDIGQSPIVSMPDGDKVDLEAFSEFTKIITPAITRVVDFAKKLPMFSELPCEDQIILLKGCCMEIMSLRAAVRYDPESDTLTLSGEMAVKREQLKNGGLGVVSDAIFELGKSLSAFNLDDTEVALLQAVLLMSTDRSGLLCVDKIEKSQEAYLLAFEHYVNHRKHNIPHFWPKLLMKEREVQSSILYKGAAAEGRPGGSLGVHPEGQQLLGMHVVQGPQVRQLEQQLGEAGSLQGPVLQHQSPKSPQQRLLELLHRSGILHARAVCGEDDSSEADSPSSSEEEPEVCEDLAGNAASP
# Description: Binding affinity at human thyroid hormone receptor alpha 1 expressed in CHOK1 cells
# [4] = biological target: T2, Thyroid hormone receptor beta (Homo sapiens, UniProt P10828); experiment: biochemical
# T2 sequence (P10828 whole entry): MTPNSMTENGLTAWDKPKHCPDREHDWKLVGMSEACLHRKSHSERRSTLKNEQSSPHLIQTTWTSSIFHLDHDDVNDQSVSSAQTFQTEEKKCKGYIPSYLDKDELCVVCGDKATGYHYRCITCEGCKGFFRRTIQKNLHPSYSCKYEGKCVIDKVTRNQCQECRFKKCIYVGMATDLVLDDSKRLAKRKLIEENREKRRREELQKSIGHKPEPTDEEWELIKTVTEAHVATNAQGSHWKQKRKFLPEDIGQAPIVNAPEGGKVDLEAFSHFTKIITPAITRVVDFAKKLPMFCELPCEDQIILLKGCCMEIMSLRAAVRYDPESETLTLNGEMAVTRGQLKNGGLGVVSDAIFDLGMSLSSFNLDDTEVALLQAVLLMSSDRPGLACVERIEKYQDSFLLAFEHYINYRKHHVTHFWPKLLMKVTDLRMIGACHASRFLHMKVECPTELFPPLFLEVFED
# Description: Binding affinity at human thyroid hormone receptor beta-1 expressed in CHOK1 cells
# CHO-K1 [5] = conditions: Homo sapiens
# Description: as §2
# CHO-K1 [6] = conditions: Homo sapiens; remark: listed apart in the source
# Description: as §1
# Rattus norvegicus [7] = experiment: Increase in heart rate in po dosed cholesterol-fed rat; assay type: functional
# Rattus norvegicus [8] = experiment: Decrease in cholesterol in po dosed cholesterol-fed rat; assay type: functional
# Rattus norvegicus [9] = experiment: Decrease in TSH in po dosed cholesterol-fed rat; assay type: functional
# Rattus norvegicus [10] = species: Rattus norvegicus; experiment: Ratio of ED15 for heart rate in cholesterol-fed rat to ED50 for cholesterol level in cholesterol-fed rat; assay type: functional
# Rattus norvegicus [11] = species: Rattus norvegicus; experiment: Ratio of ED30 for TSH in cholesterol-fed rat to ED50 for cholesterol level in cholesterol-fed rat; assay type: functional
SMILES,Ratio IC50 (Homo sapiens),EC50 (cells [1]),EC50 (cells [2]),IC50 [3],IC50 [4],Activity (CHO-K1 [5]),Activity (CHO-K1 [6]),ED15 (Rattus norvegicus [7]),ED50 (Rattus norvegicus [8]),ED30 (Rattus norvegicus [9]),Ratio (Rattus norvegicus [10]),Ratio (Rattus norvegicus [11])
CC(C)c1cc(Oc2c(Br)cc(CC(=O)N[C@@H](CC(=O)O)C(=O)O)cc2Br)ccc1O,0.9,1500 nM,1300 nM,460 nM,290 nM,84%,72%,–,–,–,–,–
CC(C)c1cc(Oc2c(Cl)cc(CC(=O)O)cc2Cl)ccc1O,–,–,–,–,–,–,–,2900 nmol/kg/day,72 nmol/kg/day,32 nmol/kg/day,–,–
N[C@@H](Cc1cc(I)c(Oc2ccc(O)c(I)c2)c(I)c1)C(=O)O [LIOTHYRONINE],–,–,–,–,–,–,–,31 nmol/kg/day,21 nmol/kg/day,6.7 nmol/kg/day,–,–
CC(C)c1cc(Oc2c(Br)cc(CC(=O)N[C@H](C)C(=O)O)cc2Br)ccc1O,8.3,15 nM,7.6 nM,83 nM,5.9 nM,100%,83%,–,–,–,–,–
CC(C)c1cc(Oc2c(Br)cc(CC(=O)N[C@H](C(=O)O)c3ccccc3)cc2Br)ccc1O,5.7,–,–,7.5 nM,0.78 nM,–,–,–,–,–,–,–
CC(C)c1cc(Oc2c(Br)cc(CC(=O)N[C@@H](C(=O)O)c3ccccc3)cc2Br)ccc1O,6,1.5 nM,0.73 nM,5.5 nM,0.6 nM,85%,65%,–,–,–,–,–

# Further compounds by falling EC50 (cells [1]), results first:
Ratio IC50 (Homo sapiens),EC50 (cells [1]),EC50 (cells [2]),IC50 [3],IC50 [4],SMILES,Activity (CHO-K1 [5]),Activity (CHO-K1 [6]),ED15 (Rattus norvegicus [7]),ED50 (Rattus norvegicus [8]),ED30 (Rattus norvegicus [9]),Ratio (Rattus norvegicus [10]),Ratio (Rattus norvegicus [11])
0.34,170 nM,1100 nM,1500 nM,2600 nM,Cc1cc(Oc2c(Br)cc(CC(=O)N[C@H](C(=O)O)C(C)C)cc2Br)cc(C(C)C)c1O,27%,13%,–,–,–,–,–
5.9,103 nM,42 nM,26 nM,2.7 nM,CC(C)c1cc(Oc2c(Br)cc(CC(=O)NCC(=O)O)cc2Br)ccc1O,85%,75%,–,–,–,–,–
3.8,66 nM,38 nM,168 nM,26 nM,CC(C)c1cc(Oc2c(Br)cc(CC(=O)N[C@H](CC(=O)O)C(=O)O)cc2Br)ccc1O,88%,74%,–,–,–,–,–
0.29,65 nM,210 nM,670 nM,1400 nM,CC(C)c1cc(Oc2c(Br)cc(CC(=O)N[C@H](C(=O)O)C(C)C)cc2Br)cc(Cl)c1O,31%,21%,–,–,–,–,–
4.3,17 nM,11 nM,88 nM,12 nM,CC(C)c1cc(Oc2c(Br)cc(CC(=O)N[C@H](C(=O)O)C(C)C)cc2Br)cc(F)c1O,88%,78%,–,–,–,–,–
4.5,7.2 nM,2.6 nM,10 nM,1.3 nM,CC(C)c1cc(Oc2c(Br)cc(CC(=O)N[C@@H](C)C(=O)O)cc2Br)ccc1O,92%,81%,–,–,–,–,–
8.2,2.3 nM,1.2 nM,9.8 nM,0.71 nM,CC(C)c1cc(Oc2c(Br)cc(CC(=O)N[C@@H](C(=O)O)C(C)C)cc2Br)ccc1O,100%,88%,–,–,–,–,–
9.4,1.4 nM,0.77 nM,4.3 nM,0.27 nM,CC(C)c1cc(Oc2c(Br)cc(CC(=O)N[C@H](C(=O)O)C(C)C)cc2Br)ccc1O,92%,78%,1580 nmol/kg/day,82 nmol/kg/day,242 nmol/kg/day,19,3
